Source: the supplement of paper PMC10307832

Key:
Test in all cases: relative viability (nuclei count vs DMSO), 5 days (fraction); higher = more cells survive
[1] = compound: CC1=CC(=NN1)NC2=CC(=NC(=N2)/C=C/C3=CC=CC=C3)N4CCN(CC4)C + CC1(C)CCC(c2ccc(Cl)cc2)=C(CN2CCN(c3ccc(C(=O)NS(=O)(=O)c4ccc(N[C@H](CCN5CCOCC5)CSc5ccccc5)c(S(=O)(=O)C(F)(F)F)c4)cc3)CC2)C1 [Navitoclax] (partner 0.5 µM)
In short: (§1)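 Relative viability equals treated-well nuclei counts divided by vehicle-well nuclei counts. Counts came from 4× images of lung cancer cell lines grown in 1536-well plates for 5 days after pin-tool dosing on the day after seeding. Dosing used one drug alone or a fixed anchor-drug dose plus five library-drug doses (not always all listed) in √10 steps, and values are medians of duplicate plates.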

[2] = compound: CC(C)C[C@H](NC(=O)[C@H](Cc1ccccc1)NC(=O)c1cnccn1)B(O)O [Bortezomib] + Cc1nc(NC(=O)N2CCC[C@H]2C(N)=O)sc1-c1ccnc(C(C)(C)C(F)(F)F)c1 [Alpelisib] (partner 2 µM)
In short: as §1

[3] = compound: CC1=CC(=NN1)NC2=CC(=NC(=N2)/C=C/C3=CC=CC=C3)N4CCN(CC4)C + C[C@]1(O)C[C@@H](c2nc(-c3ccc4ccc(-c5ccccc5)nc4c3)c3c(N)nccn32)C1 [Linsitinib] (partner 1 µM)
In short: as §1

[4] = compound: COC1=CC(c2cc3ccccc3[nH]2)=N/C1=C\c1[nH]c(C)cc1C [Obatoclax] + O=C(CCCCCCC(=O)Nc1ccccc1)NO [Vorinostat] (partner 1 µM)
In short: as §1

Cell Line | relative viability ([1]; first compound 0.08 µM) | relative viability ([1]; first compound 0.253 µM) | relative viability ([1]; first compound 0.8 µM) | relative viability ([1]; first compound 2.53 µM) | relative viability ([1]; first compound 8 µM) | relative viability ([2]; first compound 0.0002 µM) | relative viability ([2]; first compound 0.000632 µM) | relative viability ([2]; first compound 0.002 µM) | relative viability ([2]; first compound 0.006325 µM) | relative viability ([2]; first compound 0.02 µM) | relative viability ([3]; first compound 0.08 µM) | relative viability ([3]; first compound 0.253 µM) | relative viability ([3]; first compound 0.8 µM) | relative viability ([3]; first compound 2.53 µM) | relative viability ([3]; first compound 8 µM) | relative viability ([4]; first compound 0.01 µM) | relative viability ([4]; first compound 0.03162 µM) | relative viability ([4]; first compound 0.1 µM) | relative viability ([4]; first compound 0.3162 µM) | relative viability ([4]; first compound 1 µM)
NCI-H3122 | 1 | 0.996 | 0.991 | 0.918 | 0.896 | 0.796 | 0.718 | 0.798 | 0.59 | 0.17 | 1.01 | 0.944 | 0.999 | 0.884 | 0.77 | 0.981 | 0.783 | 1.03 | 0.991 | 1.07
PC-3 [JPC-3] | 0.769 | 0.81 | 0.762 | 0.62 | 0.389 | 1.03 | 1.04 | 0.786 | 0.901 | 0.134 | 1.01 | 1.02 | 0.918 | 0.95 | 0.814 | 0.835 | 0.555 | 0.767 | 0.527 | 0.439
PC-14 | 0.974 | 1.01 | 0.928 | 0.324 | 0.0445 | 0.977 | 0.909 | 1.01 | 0.325 | 0.0573 | 0.906 | 1.01 | 0.892 | 0.77 | 0.107 | 0.625 | 0.736 | 0.696 | 0.341 | 0.0549
RERF-LC-KJ | 1.05 | 1.01 | 0.764 | 0.361 | 0.189 | 0.8 | 0.782 | 0.815 | 0.477 | 0.212 | 0.817 | 0.863 | 0.792 | 0.604 | 0.216 | 0.649 | 0.791 | 0.709 | 0.595 | 0.474
SK-LU-1 | 0.792 | 0.905 | 0.786 | 0.385 | 0.0813 | 1.09 | 0.963 | 0.551 | 0.154 | 0.149 | 0.93 | 1.18 | 0.84 | 0.238 | 0.142 | 0.833 | 0.827 | 0.723 | 0.671 | 0.441
SK-MES-1 | 1.11 | 1.21 | 1.15 | 0.479 | 0.116 | 0.86 | 0.723 | 0.825 | 0.475 | 0.206 | 1.06 | 1.04 | 0.939 | 0.796 | 0.146 | 1.06 | 1.11 | 0.905 | 0.907 | 0.301
SW 1573 | 0.98 | 1.06 | 0.772 | 0.227 | 0.0461 | 0.833 | 0.774 | 0.813 | 0.164 | 0.0782 | 0.737 | 0.78 | 0.607 | 0.502 | 0.124 | 0.791 | 1.04 | 0.792 | 0.429 | 0.169
UMC-11 | 0.317 | 0.312 | 0.177 | 0.116 | 0.0909 | 0.842 | 0.994 | 1.09 | 0.223 | 0.136 | 0.937 | 1.03 | 0.934 | 0.508 | 0.133 | 0.39 | 0.439 | 0.375 | 0.407 | 0.288
